# Where two headings read alike, the source gives them in different places.
# Legend:
# [1] = target: CDK5/p25 (Homo sapiens, UniProt Q00535); experiment: CDK5/p25 kinase assay (histone H1, 15 μM ATP); format: biochemical, mammalian; conditions: Table 1
# Procedure: (§1) Blank values were subtracted and activities calculated as pmoles of phosphate incorporated for a 10 min. incubation. […] Controls were performed with appropriate dilutions of dimethylsulfoxide. In a few cases phosphorylation of the substrate was assessed by autoradiography after SDS-PAGE.
# CDK5/p25 was reconstituted by mixing equal amounts of recombinant mammalian CDK5 and p25 expressed in E. coli as GST (Glutathione-S-transferase) fusion proteins and purified by affinity chromatography on glutathione-agarose (p25 is a truncated version of p35, the 35 kDa CDK5 activator). Its activity was assayed in buffer C as described for CDK1/cyclin B.
# (§2) Kinases were assayed as above described in the presence of increasing concentrations of aloisines.
# [2] = target: CDK1/cyclin B; experiment: CDK1/cyclin B kinase assay (histone H1, 15 μM ATP); format: biochemical, starfish (Marthasterias glacialis); conditions: for IC50: 15 μM ATP, Table 1
# Procedure: as §1
# CDK1/cyclin B was extracted in homogenisation buffer from M phase starfish (Marthasterias glacialis) oocytes and purified by affinity chromatography on p9^CKShs1-sepharose beads, from which it was eluted by free p9^CKShs1. […] ATP (3,000 Ci/mmol; 1 mCi/ml) in a final volume of 30 μl. After 10 min. incubation at 30° C., 25 μl aliquots of supernatant were spotted onto P81 phosphocellulose papers and treated as described above.
# as §2
# [3] = target: GSK-3α/β; experiment: GSK-3 kinase assay (GS-1 peptide, 15 μM ATP); format: biochemical, porcine
# Procedure: as §1
# GSK-3α/β was either purified from porcine brain or expressed in and purified from insect Sf9 cells. […] ATP (3,000 Ci/mmol; 1 mCi/ml) in a final volume of 30 μl. After 30 min. incubation at 30° C., 25 μl aliquots of supernatant were spotted onto 2.5×3 cm pieces of Whatman P81 phosphocellulose paper, and, 20 sec. later, the filters were washed five times (for at least 5 min. each time) in a solution of 10 ml phosphoric acid/liter of water. The wet filters were counted in the presence of 1 ml ACS (Amersham) scintillation fluid.
# as §2
# [4] = target: Insulin receptor tyrosine kinase (Homo sapiens, UniProt P06213); conditions: read-out: IC50 Insulin receptor tyrosine kinase; 15 μM ATP
# Chain of Insulin receptor tyrosine kinase (P06213 28-1382): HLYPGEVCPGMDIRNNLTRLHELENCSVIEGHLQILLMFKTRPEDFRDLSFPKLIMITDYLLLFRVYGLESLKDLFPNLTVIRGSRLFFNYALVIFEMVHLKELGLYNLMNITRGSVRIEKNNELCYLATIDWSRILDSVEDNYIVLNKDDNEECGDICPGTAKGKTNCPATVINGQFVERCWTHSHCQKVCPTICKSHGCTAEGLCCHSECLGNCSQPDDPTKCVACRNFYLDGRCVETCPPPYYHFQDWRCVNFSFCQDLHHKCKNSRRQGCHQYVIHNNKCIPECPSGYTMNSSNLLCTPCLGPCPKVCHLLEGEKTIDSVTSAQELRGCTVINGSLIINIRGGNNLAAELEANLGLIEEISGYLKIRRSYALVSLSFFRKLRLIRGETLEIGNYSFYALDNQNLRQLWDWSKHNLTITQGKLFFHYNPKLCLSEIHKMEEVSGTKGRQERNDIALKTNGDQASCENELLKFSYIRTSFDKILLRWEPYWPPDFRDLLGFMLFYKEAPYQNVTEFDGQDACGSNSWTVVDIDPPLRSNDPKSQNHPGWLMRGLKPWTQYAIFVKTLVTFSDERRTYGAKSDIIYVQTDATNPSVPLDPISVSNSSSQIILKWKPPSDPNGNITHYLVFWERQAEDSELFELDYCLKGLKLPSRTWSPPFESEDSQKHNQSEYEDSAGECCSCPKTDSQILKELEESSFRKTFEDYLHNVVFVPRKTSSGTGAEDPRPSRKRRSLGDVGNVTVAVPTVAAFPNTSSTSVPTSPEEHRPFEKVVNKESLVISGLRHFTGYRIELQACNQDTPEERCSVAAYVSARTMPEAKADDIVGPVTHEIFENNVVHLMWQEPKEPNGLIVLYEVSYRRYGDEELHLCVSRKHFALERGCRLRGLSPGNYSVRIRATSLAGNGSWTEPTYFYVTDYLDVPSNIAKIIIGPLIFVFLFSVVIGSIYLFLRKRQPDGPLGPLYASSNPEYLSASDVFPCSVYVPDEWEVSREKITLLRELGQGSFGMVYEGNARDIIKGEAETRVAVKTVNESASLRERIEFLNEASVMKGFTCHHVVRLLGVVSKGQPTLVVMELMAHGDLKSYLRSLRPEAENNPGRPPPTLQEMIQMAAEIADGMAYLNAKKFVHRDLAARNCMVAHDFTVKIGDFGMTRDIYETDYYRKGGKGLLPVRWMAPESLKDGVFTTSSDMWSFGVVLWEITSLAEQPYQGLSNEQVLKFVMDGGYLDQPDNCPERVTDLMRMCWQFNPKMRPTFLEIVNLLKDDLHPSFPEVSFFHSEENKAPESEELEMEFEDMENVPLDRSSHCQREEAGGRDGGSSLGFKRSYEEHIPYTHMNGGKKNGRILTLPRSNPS
# Description: (§5) Other kinases were expressed, purified and assayed as described previously (9), (10).
# [5] = target: T1, CDK4/cyclin D1 (Homo sapiens, UniProt P11802); experiment: Kinase selectivity panel; format: biochemical; conditions: 15 μM ATP
# T1 construct: made in house
# T1 sequence (P11802 whole entry, species assumed): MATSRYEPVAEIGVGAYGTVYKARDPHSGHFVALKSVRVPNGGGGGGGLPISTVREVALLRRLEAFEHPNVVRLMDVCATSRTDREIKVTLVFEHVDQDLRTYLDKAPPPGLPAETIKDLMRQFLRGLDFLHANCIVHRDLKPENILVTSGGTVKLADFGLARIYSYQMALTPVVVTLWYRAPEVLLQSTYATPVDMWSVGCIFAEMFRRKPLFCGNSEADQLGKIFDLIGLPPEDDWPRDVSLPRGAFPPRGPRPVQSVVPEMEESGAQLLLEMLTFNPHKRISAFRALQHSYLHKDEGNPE
# T1 sequence (P24385 whole entry partner, species assumed): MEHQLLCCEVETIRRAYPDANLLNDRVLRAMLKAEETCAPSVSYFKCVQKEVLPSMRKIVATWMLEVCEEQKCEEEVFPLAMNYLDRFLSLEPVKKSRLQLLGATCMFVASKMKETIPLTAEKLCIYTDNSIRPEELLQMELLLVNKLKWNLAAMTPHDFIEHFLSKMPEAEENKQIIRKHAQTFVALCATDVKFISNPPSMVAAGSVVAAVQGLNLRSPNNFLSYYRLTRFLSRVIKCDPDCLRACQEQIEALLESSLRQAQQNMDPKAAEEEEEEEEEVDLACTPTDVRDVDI
# Description: as §5
# [6] = tested on: NT2 cells; experiment: Exponential cell growth of NT2 cells; format: cell-based, human; conditions: figure legend FIGS. 4A to 4E
# Procedure: (§3) Clonal human NT2 teraterocarcinoma cells were obtained from Stratagene (La Jolla, Calif.) and grown in Dulbecco's Modified Eagle Medium: Nutrient Mixture F-12 with 2 mM L-Glutamine (BIO […]) supplemented with 5% FCS and containing penicillin (20 UI/ml) and streptomycin (20 μg/ml) at 37° C., in a humidified atmosphere containing 5% CO2 in air.
# (§4) Exponentially growing cells were incubated for 24 h with aloisine A (stock solution dissolved in dimethylsulfoxide). Nocodazole treatment of cells was performed at a concentration of 0.04 μg nocodazole/ml of medium for 24 h. Following the nocodazole treatment, cells were washed twice with fresh medium and cultured with or without aloisine A for 24 h. To perform serum deprivation, cells were maintained in serum-free medium for 40 h. Following serum deprivation, cells were washed twice and cultured in fresh serum-containing medium with or without aloisine A for 40 h.
# The formazan products were dissolved in DMSO and quantified by measurement of the absorbance at 562 nm.
# [7] = tested on: NT2 cells; experiment: Cell cycle analysis by flow cytometry; format: cell-based, human
# Procedure: as §3, §4
# Cells were trypsinised, collected by centrifugation and fixed in cold 70% ethanol for at least 4 h. Fixed cells were washed in PBS, incubated with 10 μg RNAse A/ml and stained with 25 μg propidium iodide/ml for 1 h at 37° C. The stained cells were then analysed for cell cycle distribution on a FACSort flow cytometer (Becton Dickinson). Cell cycle analyses were performed multiCYCLE (18).
# The effect of aloisine A on the cell cycle distribution was investigated for NT2 cells by flow cytometry. Unsynchronised cells (FIG. 4E) were exposed to 20 μM aloisine A for 40 h (FIG. 4F).
# The effects of aloisine A on NT2 cells synchronized either in G0/G1 by serum deprivation or in G2/M by nocodazole treatment was also investigated. The results are given on FIG. 4: the cell cycle phase distribution was analysed by flow cytometry following propidium iodide staining. (A, B, C). NT2 cells were synchronized by serum deprivation for […] (A), then cultured for 40 h in fresh medium without (B) or with 20 μM aloisine A (C). (D, E, F). NT2 cells were synchronized by nocodazole treatment ([…]) for 24 h (D), then cultured for 40 h in fresh medium without (E) or with 20 μM aloisine A (F).
# [8] = target: Casein kinase 1; experiment: Kinase selectivity panel; format: biochemical; conditions: 15 μM ATP
# Description: as §5
# [9] = target: T2, erk1 (Homo sapiens, UniProt P27361); experiment: Kinase selectivity panel; format: biochemical; conditions: 15 μM ATP
# T2 construct: made in house
# T2 sequence (P27361 whole entry, species assumed): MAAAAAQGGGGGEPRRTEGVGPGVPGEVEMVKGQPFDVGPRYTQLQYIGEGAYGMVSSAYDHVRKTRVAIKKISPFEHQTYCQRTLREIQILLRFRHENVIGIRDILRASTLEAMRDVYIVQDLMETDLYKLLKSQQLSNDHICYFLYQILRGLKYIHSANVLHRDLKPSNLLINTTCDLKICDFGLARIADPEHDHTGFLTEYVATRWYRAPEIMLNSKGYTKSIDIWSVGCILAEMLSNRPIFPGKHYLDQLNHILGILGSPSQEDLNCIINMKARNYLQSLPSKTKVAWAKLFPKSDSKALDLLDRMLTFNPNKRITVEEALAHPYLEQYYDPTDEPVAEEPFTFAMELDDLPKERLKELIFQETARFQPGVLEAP
# Description: as §5
# [10] = target: c-Jun N-terminal kinase; experiment: Kinase selectivity panel; format: biochemical; conditions: 15 μM ATP
# Description: as §5
# [11] = target: T3, protein kinase C η (Homo sapiens, UniProt P24723); experiment: Kinase selectivity panel; format: biochemical; conditions: 15 μM ATP
# T3 construct: made in house
# T3 sequence (P24723 whole entry): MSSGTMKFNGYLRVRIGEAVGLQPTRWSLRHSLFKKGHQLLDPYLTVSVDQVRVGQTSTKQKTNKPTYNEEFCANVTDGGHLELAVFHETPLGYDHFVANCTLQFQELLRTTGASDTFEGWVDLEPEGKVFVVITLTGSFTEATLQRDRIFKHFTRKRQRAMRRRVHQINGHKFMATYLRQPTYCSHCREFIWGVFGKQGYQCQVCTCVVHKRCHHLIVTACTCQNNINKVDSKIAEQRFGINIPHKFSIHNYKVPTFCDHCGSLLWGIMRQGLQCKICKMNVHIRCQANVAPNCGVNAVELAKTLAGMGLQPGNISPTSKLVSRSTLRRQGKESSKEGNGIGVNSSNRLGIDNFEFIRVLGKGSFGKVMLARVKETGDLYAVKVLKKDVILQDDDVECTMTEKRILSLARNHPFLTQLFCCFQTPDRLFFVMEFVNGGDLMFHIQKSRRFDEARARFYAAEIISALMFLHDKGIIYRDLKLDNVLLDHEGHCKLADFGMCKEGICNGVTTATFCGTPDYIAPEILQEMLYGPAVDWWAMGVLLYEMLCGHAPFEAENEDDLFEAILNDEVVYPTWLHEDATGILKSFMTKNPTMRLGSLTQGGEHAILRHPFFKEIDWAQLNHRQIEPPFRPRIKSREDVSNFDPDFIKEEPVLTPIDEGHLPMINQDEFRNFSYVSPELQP
# Description: as §5
# [12] = target: T4, erk2 (Homo sapiens, UniProt P28482); experiment: Kinase selectivity panel; format: biochemical; conditions: 15 μM ATP
# T4 construct: made in house
# T4 sequence (P28482 whole entry, species assumed): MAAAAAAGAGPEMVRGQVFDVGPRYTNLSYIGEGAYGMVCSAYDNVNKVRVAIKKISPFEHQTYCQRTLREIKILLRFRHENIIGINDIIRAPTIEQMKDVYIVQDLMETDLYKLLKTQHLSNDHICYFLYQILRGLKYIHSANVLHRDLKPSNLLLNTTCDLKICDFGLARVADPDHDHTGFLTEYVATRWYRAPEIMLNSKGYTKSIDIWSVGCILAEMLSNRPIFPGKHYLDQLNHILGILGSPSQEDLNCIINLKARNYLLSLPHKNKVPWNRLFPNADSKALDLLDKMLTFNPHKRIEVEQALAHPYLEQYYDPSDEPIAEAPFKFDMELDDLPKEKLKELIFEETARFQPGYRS
# Description: as §5
# [13] = target: Casein kinase 2; experiment: Kinase selectivity panel; format: biochemical; conditions: 15 μM ATP
# Description: as §5
# [14] = target: MAPKK; experiment: Kinase selectivity panel; format: biochemical; conditions: 15 μM ATP
# Description: as §5
# [15] = 15 μM ATP, Table 1, read-out: IC50 GSK-3
# Chain of CDK5/p25 (Q00535 whole entry, species assumed): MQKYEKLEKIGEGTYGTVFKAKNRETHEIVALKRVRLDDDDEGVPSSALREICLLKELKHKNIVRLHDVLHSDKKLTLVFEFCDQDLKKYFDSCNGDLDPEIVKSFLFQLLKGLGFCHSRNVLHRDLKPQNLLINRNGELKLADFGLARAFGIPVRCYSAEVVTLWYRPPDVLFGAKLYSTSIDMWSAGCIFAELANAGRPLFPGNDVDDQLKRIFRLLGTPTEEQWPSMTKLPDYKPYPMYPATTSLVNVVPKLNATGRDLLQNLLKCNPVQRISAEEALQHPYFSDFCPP
# Chain of CDK5/p25 (Q15078 99-307 partner limits assumed, species assumed): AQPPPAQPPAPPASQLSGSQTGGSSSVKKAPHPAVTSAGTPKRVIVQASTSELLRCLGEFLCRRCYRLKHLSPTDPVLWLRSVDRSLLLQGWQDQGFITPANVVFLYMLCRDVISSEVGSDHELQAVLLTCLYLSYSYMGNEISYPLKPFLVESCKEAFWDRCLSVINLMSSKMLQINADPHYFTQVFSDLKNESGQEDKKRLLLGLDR
Structure (SMILES),IC50 [1] [µM],melting point,IC50 [2] [µM],"IC50 [3, 15] [µM]",other results
"COc1ccc(-c2cc3nccnc3[nH]2)cc1 [14 (RP11), 6-(4-Methoxyphenyl)[5H]pyrrolo[2,3-b]pyrazine]",4,256.1 °C (dec.),2,1.1,
"Clc1cc(Cl)cc(-c2cc3nccnc3[nH]2)c1 [20 (RP15), 6-(3,5-Dichlorophenyl)[5H]pyrrolo[2,3-b]pyrazine]",> 100,252 °C (dec.),> 100,> 100,
"FC(F)(F)c1ccc(-c2cc3nccnc3[nH]2)cc1 [22 (RP8), 6-(4-Trifluoromethylphenyl)[5H]pyrrolo[2,3-b]pyrazine]",> 100,238 °C (dec.),6,7.2,
"CN(C)c1ccc(-c2cc3nccnc3[nH]2)cc1 [26 (RP129), 6-(4-Dimethylaminophenyl)[5H]pyrrolo[2,3-b]pyrazine]",> 100,271 °C (dec.),20,12,
CCCCc1c(-c2ccc(O)cc2)[nH]c2nccnc12 [39 (RP107)],,,,,"IC50 [4]: 60 µM; IC50 [5]: > 100 µM; Exponential cell growth [6]: reversible inhibition of exponential cell growth; Cell cycle distribution, unsynchronised cells ([7]; NT2 cells, 20 μM for 40 h): accumulation in G2/M phase; Cell cycle distribution after G2/M synchronisation by nocodazole ([7]; NT2 cells, 20 μM for 40 h after nocodazole withdrawal): remained in G2/M; Cell cycle distribution after G0/G1 synchronisation by serum deprivation ([7]; NT2 cells, serum-enriched medium with 20 μM for 40 h): remained essentially in G0/G1; Signs of apoptosis ([7]; unsynchronised NT2 cells, 20 μM for 40 h): No signs of apoptosis were detectable; IC50 [8]: > 100 µM; IC50 [9]: 18 µM; Mechanism of inhibition versus ATP, CDK1/cyclin B ([2]; ATP 0.1 to […], histone H1 0.7 mg/ml, double reciprocal plots): competitive inhibitor for ATP; IC50 ([3]; text summary of selectivity, read-out: IC50 GSK-3α/β): […]; IC50 [10]: 3.3 to 10 µM; IC50 [11]: > 100 µM; IC50 [12]: 22 µM; IC50 [13]: > 100 µM; IC50 [14]: > 100 µM"
"CCCCc1c(-c2ccc(Cl)cc2)[nH]c2nccnc12 [40 (RP108), 7-n-Butyl-6-(4-chlorophenyl)[5H]pyrrolo[2,3-b]pyrazine]",> 100,200 °C,0.2,5.9,
"CCCCCCCc1c(-c2ccc(OC)cc2)[nH]c2nccnc12 [41 (RP111), 7-n-Heptyl-6-(4-methoxyphenyl)[5H]pyrrolo[2,3-b]pyrazine]",> 100,132.5 °C,7,> 10,
"c1ccc(Cc2c(-c3ccccc3)[nH]c3nccnc23)cc1 [44 (RP92), 7-Benzyl-6-phenyl[5H]pyrrolo[2,3-b]pyrazine]",> 100,209.8 °C,2,1,

# Source: patent US8106050B2, “Derivatives of pyrrolo-pyrazines having a kinase inhibitory activity and their biological applications” (Centre National de la Recherche Scientifique (C.N.R.S.), priority 2002, dated 2012)
